From patent US20200231638A1, “STABILIZED ANTI-MICROBIAL PEPTIDES” (priority 2015, published 2020)
Each block holds one molecule with its values, some of them ahead of it. Bridge positions count the residues as written; N and C are the ends. Square brackets hold non-standard residues; d marks the D form. Peptide text beside a SMILES is read from it. S5 = C=CCCC[C@](C)(N)C(=O)O; Nle = CCCC[C@H](N)C(=O)O

How the values were obtained:
human red blood cells = format: cell-based; settings: red cells of human, 1 h, 25
Method in brief: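 Hemolysis expressed as absorbance of released hemoglobin (570 nm) normalized between untreated and 1% Triton-X100 controls, with MHC taken as peptide concentration giving under 1% release. Peptide dilutions were exposed for 1 h at 37° C to a 1% (v/v) suspension of washed human red cells in PBS.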

P. aeruginosa = format: cell-based, Pseudomonas aeruginosa
Method in brief: (§1)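 MIC read as the minimum peptide concentration showing no visible growth after 20-24 hours at 37° C. Cultures were grown overnight, then regrown several hours before testing. Medium was MHB refined by anion exchange to strip polyanions; final inoculum 5×10^5 CFU/ml.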

E. coli = format: cell-based, Escherichia coli
Method in brief: as §1

S. aureus = format: cell-based, Staphylococcus aureus
Method in brief: as §1

B. cereus = format: cell-based, Bacillus cereus
Method in brief: as §1

Structure (SMILES): CCCC[C@H](NC(=O)[C@]1(C)CCCC=CCCC[C@](C)(NC(=O)[C@H](Cc2c[nH]cn2)NC(=O)[C@H](CCCCN)NC(=O)CNC(=O)[C@H](Cc2ccccc2)NC(=O)[C@H](CCCCN)NC(=O)[C@H](CCCCN)NC(=O)[C@H](C)NC(=O)[C@H](CO)NC(=O)[C@H](Cc2c[nH]cn2)NC(=O)[C@H](CC(C)C)NC(=O)[C@H](Cc2ccccc2)NC(=O)[C@H](CCCCN)NC(=O)CNC(=O)[C@@H](NC(=O)CN)[C@@H](C)CC)C(=O)N[C@@H](C(C)C)C(=O)NCC(=O)N[C@@H](CCC(=O)O)C(=O)N1)C(=O)N[C@@H](CC(N)=O)C(=O)N[C@@H](CO)C(N)=O [Mag(i + 4)15(A15H), GIGKFLHSAKKFGKHXVGEXBNS] (H-GIGKFLHSAKKFGKH[S5]VGE[S5][Nle]NS-NH2; staple 16-20)
% Hemolysis at 25 μg/ml (human red blood cells): 4.7% | MIC P. aeruginosa (P. aeruginosa): 12.5 µg/mL | MIC E. coli (E. coli): 3.1 µg/mL | MIC S. aureus (S. aureus): 12.5 µg/mL | MIC B. cereus (B. cereus): 6.2 µg/mL

Structure (SMILES): CC[C@H](C)[C@H](NC(=O)CN)C(=O)NCC(=O)N[C@@H](CCCCN)C(=O)N[C@@H](Cc1ccccc1)C(=O)N[C@@H](CC(C)C)C(=O)N[C@@H](Cc1c[nH]cn1)C(=O)N[C@@H](CO)C(=O)N[C@@H](C)C(=O)N[C@@H](CCCCN)C(=O)N[C@@H](CCCCN)C(=O)N[C@@H](Cc1ccccc1)C(=O)NCC(=O)N[C@@H](CCCCN)C(=O)N[C@@H](C)C(=O)N[C@@]1(C)CCCC=CCCC[C@@](C)(C(=O)N[C@@H](CCC(=O)O)C(=O)N[C@@H](CC(N)=O)C(=O)N[C@@H](CO)C(N)=O)NC(=O)[C@H](CCC(=O)O)NC(=O)CNC(=O)[C@H](C(C)C)NC1=O [Mag(i + 4)15(B21E), GIGKFLHSAKKFGKAXVGEXENS] (H-GIGKFLHSAKKFGKA[S5]VGE[S5]ENS-NH2; staple 16-20)
% Hemolysis at 25 μg/ml (human red blood cells): 0.8% | MIC P. aeruginosa (P. aeruginosa): >50 µg/mL | MIC E. coli (E. coli): 25 µg/mL | MIC S. aureus (S. aureus): >50 µg/mL | MIC B. cereus (B. cereus): >50 µg/mL

Structure (SMILES): CC[C@H](C)[C@H](NC(=O)CN)C(=O)NCC(=O)N[C@@H](CCCCN)C(=O)N[C@@H](Cc1ccccc1)C(=O)N[C@@H](CC(C)C)C(=O)N[C@@H](Cc1c[nH]cn1)C(=O)N[C@@H](CO)C(=O)N[C@@H](C)C(=O)N[C@@H](CCCCN)C(=O)N[C@@H](CCCCN)C(=O)N[C@@H](Cc1ccccc1)C(=O)NCC(=O)N[C@@H](CCCCN)C(=O)N[C@@H](C)C(=O)N[C@@]1(C)CCCC=CCCC[C@@](C)(C(=O)N[C@@H](CCCCN)C(=O)N[C@@H](CC(N)=O)C(=O)N[C@@H](CO)C(N)=O)NC(=O)[C@H](CCC(=O)O)NC(=O)CNC(=O)[C@H](C(C)C)NC1=O [Mag(i + 4)15(B21K), GIGKFLHSAKKFGKAXVGEXKNS] (H-GIGKFLHSAKKFGKA[S5]VGE[S5]KNS-NH2; staple 16-20)
% Hemolysis at 25 μg/ml (human red blood cells): 3.7% | MIC P. aeruginosa (P. aeruginosa): 6.2 µg/mL | MIC E. coli (E. coli): 1.6 µg/mL | MIC S. aureus (S. aureus): >50 µg/mL | MIC B. cereus (B. cereus): 25 µg/mL

Structure (SMILES): CCCC[C@H](NC(=O)[C@]1(C)CCCC=CCCC[C@](C)(NC(=O)[C@H](C)NC(=O)[C@H](CCC(=O)O)NC(=O)CNC(=O)[C@H](Cc2ccccc2)NC(=O)[C@H](CCCCN)NC(=O)[C@H](CCCCN)NC(=O)[C@H](C)NC(=O)[C@H](CO)NC(=O)[C@H](Cc2c[nH]cn2)NC(=O)[C@H](CC(C)C)NC(=O)[C@H](Cc2ccccc2)NC(=O)[C@H](CCCCN)NC(=O)CNC(=O)[C@@H](NC(=O)CN)[C@@H](C)CC)C(=O)N[C@@H](C(C)C)C(=O)NCC(=O)N[C@@H](CCC(=O)O)C(=O)N1)C(=O)N[C@@H](CC(N)=O)C(=O)N[C@@H](CO)C(N)=O [Mag(i + 4)15(E14E), GIGKFLHSAKKFGEAXVGEXBNS] (H-GIGKFLHSAKKFGEA[S5]VGE[S5][Nle]NS-NH2; staple 16-20)
% Hemolysis at 25 μg/ml (human red blood cells): 3.3% | MIC P. aeruginosa (P. aeruginosa): >50 µg/mL | MIC E. coli (E. coli): 12.5 µg/mL | MIC S. aureus (S. aureus): >50 µg/mL | MIC B. cereus (B. cereus): 50 µg/mL

Structure (SMILES): CCCC[C@H](NC(=O)[C@]1(C)CCCC=CCCC[C@](C)(NC(=O)[C@H](C)NC(=O)[C@H](CCCCN)NC(=O)CNC(=O)[C@H](Cc2ccccc2)NC(=O)[C@H](CCCCN)NC(=O)[C@H](CCCCN)NC(=O)[C@H](C)NC(=O)[C@H](CO)NC(=O)[C@H](Cc2c[nH]cn2)NC(=O)[C@H](CC(C)C)NC(=O)[C@H](Cc2ccccc2)NC(=O)[C@H](CCCCN)NC(=O)CNC(=O)[C@@H](NC(=O)CN)[C@@H](C)CC)C(=O)N[C@@H](C(C)C)C(=O)NCC(=O)N[C@@H](CCCCN)C(=O)N1)C(=O)N[C@@H](CC(N)=O)C(=O)N[C@@H](CO)C(N)=O [Mag(i + 4)15(E19K), GIGKFLHSAKKFGKAXVGKXBNS] (H-GIGKFLHSAKKFGKA[S5]VGK[S5][Nle]NS-NH2; staple 16-20)
% Hemolysis at 25 μg/ml (human red blood cells): 7.1% | MIC P. aeruginosa (P. aeruginosa): 3.1 µg/mL | MIC E. coli (E. coli): 1.6 µg/mL | MIC S. aureus (S. aureus): 12.5 µg/mL | MIC B. cereus (B. cereus): 6.2 µg/mL

Structure (SMILES): CCCC[C@H](NC(=O)[C@]1(C)CCCC=CCCC[C@](C)(NC(=O)[C@H](C)NC(=O)[C@H](CCCCN)NC(=O)CNC(=O)[C@H](Cc2ccccc2)NC(=O)[C@H](CCCCN)NC(=O)[C@H](CCCCN)NC(=O)[C@H](C)NC(=O)[C@H](CO)NC(=O)[C@H](Cc2c[nH]cn2)NC(=O)[C@H](CC(C)C)NC(=O)[C@H](Cc2ccccc2)NC(=O)[C@H](CCCCN)NC(=O)CNC(=O)[C@@H](NC(=O)[C@@H](N)CCC(=O)O)[C@@H](C)CC)C(=O)N[C@@H](C(C)C)C(=O)NCC(=O)N[C@@H](CCC(=O)O)C(=O)N1)C(=O)N[C@@H](CC(N)=O)C(=O)N[C@@H](CO)C(N)=O [Mag(i + 4)15(G1E), EIGKFLHSAKKFGKAXVGEXBNS] (H-EIGKFLHSAKKFGKA[S5]VGE[S5][Nle]NS-NH2; staple 16-20)
% Hemolysis at 25 μg/ml (human red blood cells): 4.1% | MIC P. aeruginosa (P. aeruginosa): 50 µg/mL | MIC E. coli (E. coli): 12.5 µg/mL | MIC S. aureus (S. aureus): >50 µg/mL | MIC B. cereus (B. cereus): >50 µg/mL

The next lines start with results.

MIC P. aeruginosa (P. aeruginosa): 3.1 µg/mL | MIC E. coli (E. coli): 3.1 µg/mL | MIC S. aureus (S. aureus): 25 µg/mL | MIC B. cereus (B. cereus): 6.2 µg/mL
Structure (SMILES): CCCC[C@H](NC(=O)[C@]1(C)CCCC=CCCC[C@](C)(NC(=O)[C@H](CCCCN)NC(=O)[C@H](CCCCN)NC(=O)CNC(=O)[C@H](Cc2ccccc2)NC(=O)[C@H](CCCCN)NC(=O)[C@H](CCCCN)NC(=O)[C@H](C)NC(=O)[C@H](CO)NC(=O)[C@H](Cc2c[nH]cn2)NC(=O)[C@H](CC(C)C)NC(=O)[C@H](Cc2ccccc2)NC(=O)[C@H](CCCCN)NC(=O)CNC(=O)[C@@H](NC(=O)CN)[C@@H](C)CC)C(=O)N[C@@H](C(C)C)C(=O)NCC(=O)N[C@@H](CCC(=O)O)C(=O)N1)C(=O)N[C@@H](CC(N)=O)C(=O)N[C@@H](CO)C(N)=O [Mag(i + 4)15(A15K), GIGKFLHSAKKFGKKXVGEXBNS] (H-GIGKFLHSAKKFGKK[S5]VGE[S5][Nle]NS-NH2; staple 16-20)
% Hemolysis at 25 μg/ml (human red blood cells): 4.1%

MIC P. aeruginosa (P. aeruginosa): 12.5 µg/mL | MIC E. coli (E. coli): 3.1 µg/mL | MIC S. aureus (S. aureus): >50 µg/mL | MIC B. cereus (B. cereus): >50 µg/mL
Structure (SMILES): CCCC[C@H](NC(=O)[C@]1(C)CCCC=CCCC[C@](C)(NC(=O)[C@H](C)NC(=O)[C@H](CCCCN)NC(=O)CNC(=O)[C@H](Cc2ccccc2)NC(=O)[C@H](CCCCN)NC(=O)[C@H](CCCCN)NC(=O)[C@H](C)NC(=O)[C@H](CO)NC(=O)[C@H](Cc2c[nH]cn2)NC(=O)[C@H](CC(C)C)NC(=O)[C@H](CCCCN)NC(=O)[C@H](CCCCN)NC(=O)CNC(=O)[C@@H](NC(=O)CN)[C@@H](C)CC)C(=O)N[C@@H](C(C)C)C(=O)NCC(=O)N[C@@H](CCC(=O)O)C(=O)N1)C(=O)N[C@@H](CC(N)=O)C(=O)N[C@@H](CO)C(N)=O [Mag(i + 4)15(F5K), GIGKKLHSAKKFGRAXVGEXBNS] (H-GIGKKLHSAKKFGKA[S5]VGE[S5][Nle]NS-NH2; staple 16-20; N-terminus and C-terminus assumed)
% Hemolysis at 25 μg/ml (human red blood cells): 1.7%

MIC P. aeruginosa (P. aeruginosa): >50 µg/mL | MIC E. coli (E. coli): 50 µg/mL | MIC S. aureus (S. aureus): >50 µg/mL | MIC B. cereus (B. cereus): >50 µg/mL
Structure (SMILES): CCCC[C@H](NC(=O)[C@]1(C)CCCC=CCCC[C@](C)(NC(=O)[C@H](C)NC(=O)[C@H](CCCCN)NC(=O)CNC(=O)[C@H](CCC(=O)O)NC(=O)[C@H](CCCCN)NC(=O)[C@H](CCCCN)NC(=O)[C@H](C)NC(=O)[C@H](CO)NC(=O)[C@H](Cc2c[nH]cn2)NC(=O)[C@H](CC(C)C)NC(=O)[C@H](Cc2ccccc2)NC(=O)[C@H](CCCCN)NC(=O)CNC(=O)[C@@H](NC(=O)CN)[C@@H](C)CC)C(=O)N[C@@H](C(C)C)C(=O)NCC(=O)N[C@@H](CCC(=O)O)C(=O)N1)C(=O)N[C@@H](CC(N)=O)C(=O)N[C@@H](CO)C(N)=O [Mag(i + 4)15(F12E), GIGKFLHSAKKEGKAXVGEXBNS] (H-GIGKFLHSAKKEGKA[S5]VGE[S5][Nle]NS-NH2; staple 16-20)
% Hemolysis at 25 μg/ml (human red blood cells): 0.6%

MIC P. aeruginosa (P. aeruginosa): 12.5 µg/mL | MIC E. coli (E. coli): 3.1 µg/mL | MIC S. aureus (S. aureus): >50 µg/mL | MIC B. cereus (B. cereus): >50 µg/mL
Structure (SMILES): CCCC[C@H](NC(=O)[C@]1(C)CCCC=CCCC[C@](C)(NC(=O)[C@H](C)NC(=O)[C@H](CCCCN)NC(=O)CNC(=O)[C@H](CCCCN)NC(=O)[C@H](CCCCN)NC(=O)[C@H](CCCCN)NC(=O)[C@H](C)NC(=O)[C@H](CO)NC(=O)[C@H](Cc2c[nH]cn2)NC(=O)[C@H](CC(C)C)NC(=O)[C@H](Cc2ccccc2)NC(=O)[C@H](CCCCN)NC(=O)CNC(=O)[C@@H](NC(=O)CN)[C@@H](C)CC)C(=O)N[C@@H](C(C)C)C(=O)NCC(=O)N[C@@H](CCC(=O)O)C(=O)N1)C(=O)N[C@@H](CC(N)=O)C(=O)N[C@@H](CO)C(N)=O [Mag(i + 4)15(F12K), GIGKFLHSAKKKGKAXVGEXBNS] (H-GIGKFLHSAKKKGKA[S5]VGE[S5][Nle]NS-NH2; staple 16-20)
% Hemolysis at 25 μg/ml (human red blood cells): 2.0%
